ChEMBL document CHEMBL1147475, “2-Alkyl-4-arylimidazoles: structurally novel sodium channel modulators” (Bioorg Med Chem Lett, 2004)

Columns and labels:
[1] = target: Sodium channel alpha subunits; brain (Types I, II, III) (Rattus norvegicus, UniProt P04775+P04774+P08104); assay: Concentration required to inhibit [3H]BTX binding to Sodium channel of rat brain
SH-SY5Y = assay: Cytoprotection of SH-SY5Y cells against veratridine-induced cytotoxicity; format: functional, cell-based; details: Homo sapiens

| SMILES | IC50 [1] [µM] | IC50 (SH-SY5Y) [µM] |
| --- | --- | --- |
| CCCC(CCC)c1nc(-c2ccc(-c3ccc(Br)cc3)cc2)c[nH]1 | 0.322 |  |
| CCCC(CCC)c1nc(-c2ccc(-c3ccccc3)cc2)c[nH]1 | 0.1 |  |
| c1ccc(-c2ccc(-c3c[nH]c(CCC4CCCCC4)n3)cc2)cc1 | 0.026 | 0.76 |
| c1ccc(-c2c[nH]c([C@H]3Cc4c([nH]c5ccccc45)[C@@H](c4ccccc4)N3)n2)cc1 | 1.46 |  |
| Cc1nc(-c2ccc(-c3ccccc3)cc2)c[nH]1 | 1.46 |  |
| c1ccc(-c2ccc(-c3c[nH]c(CCCC4CCCCC4)n3)cc2)cc1 | 0.019 | 1 |
| CCCCCC(CCCCC)c1nc(-c2ccc(-c3ccccc3)cc2)c[nH]1 | 0.008 | 0.81 |
| c1ccc(-c2ccc(-c3c[nH]c(CC4CCCCC4)n3)cc2)cc1 | 0.07 |  |
| Fc1ccc(-c2c[nH]c(CC3CCCCC3)n2)cc1 | 0.146 |  |
| NC(=O)N1c2ccccc2C=Cc2ccccc21 [CARBAMAZEPINE] | 167 |  |
| Nc1nnc(-c2cccc(Cl)c2Cl)c(N)n1 [LAMOTRIGINE] | 31 |  |
| CCN(CC)CC(=O)Nc1c(C)cccc1C [LIDOCAINE] | 56 |  |

Second part, led by results:

| IC50 [1] [µM] | SMILES | IC50 (SH-SY5Y) [µM] |
| --- | --- | --- |
| 0.025 | CCCCCC(CCCCC)c1nc(-c2ccc(F)cc2)c[nH]1 | 0.77 |
| 0.016 | CCCCCCc1nc(-c2ccc(-c3ccccc3)cc2)c[nH]1 | 0.45 |
| 0.518 | CCCC(CCC)c1nc(-c2ccc(F)cc2)c[nH]1 |  |
| 0.086 | CCCCCC(CCCCC)c1nc(-c2ccccc2)c[nH]1 |  |
| 0.03 | CCCC(CCC)c1nc(-c2ccc(C(C)(C)C)cc2)c[nH]1 | 0.43 |
| 0.028 | CCCCCCc1nc(-c2ccc(CC(C)C)cc2)c[nH]1 | 0.38 |
